In patent US9980943B2, “Methods of treating muscular dystrophy” (BOARD OF REGENTS OF THE NEVADA SYSTEM OF HIGHER EDUCATION, …, priority 2013, dated 2018):

What was measured:
Type in all cases: cell-based, mouse
[1] = system: α7 integrin (LacZ reporter in α7βgal+/− myoblasts); assay: Myoblast α7+/LacZ integrin FDG assay (Burkin assay in myoblasts, 96-well); conditions: 96-well; for Burkin Assay in Myoblasts, signal relative to DMSO: α7+/LacZ myoblasts; for Burkin Assay in Myoblasts, value relative to DMSO: SU9516 analogs, N=3-6
[2] = system: β-galactosidase in CMV-LacZ C2C12 myotubes; assay: CMV-LacZ secondary screen in C2C12 myotubes (β-Gal stabilizing assay); conditions: for CMV-LACZ in Myotubes, signal relative to DMSO: C2C12 CMV-LacZ myotubes, fold relative to DMSO; for CMV-LACZ in Myotubes, value relative to DMSO: SU9516 analogs, C2C12 CMV-LacZ, N=2
How it was run: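 CMV-LacZ C2C12 line (clonal, FDG-screened); myoblasts/myotubes dosed 0.5–40 μM (0.5, 1, 5, 10, 20, 40 μM); n=2 per point; β-gal stabilization read-out.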

[3] = system: α7 integrin (LacZ reporter in α7+/LacZ myotubes); assay: Myotube α7 integrin FDG assay (Burkin assay in myotubes, 96-well); conditions: for Burkin Assay in Myotubes, value relative to DMSO: SU9516 analogs, 96-well, N=3-6
[4] = system: β-galactosidase in CMV-LacZ C2C12 myoblasts; assay: CMV-LacZ secondary screen in C2C12 myoblasts (β-Gal stabilizing assay); conditions: for CMV-LACZ in Myoblasts (β-galactosidase activity relative to DMSO): CMV-LacZ C2C12 myoblasts; for CMV-LACZ in Myoblasts, value relative to DMSO: SU9516 analogs, C2C12 CMV-LacZ, N=2
How it was run: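 C2C12 myoblasts stably carrying a linearized CMV-driven LacZ construct, clone chosen by β-gal level in the myoblast FDG assay. Compounds tested in 96-well dose-response at 0.5, 1, 5, 10, 20 and 40 μM, N=2 replicates per point, to detect β-gal stabilization.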

CCOC(=O)c1cc(C(=O)OCC)c(=O)[nH]c1SCc1ccccc1 [MLS001008109-01]
Burkin Assay in Myoblasts, signal relative to DMSO ([1]; 0.5 uM): 0.8481
Burkin Assay in Myoblasts, signal relative to DMSO ([1]; 1 uM): 0.78
Burkin Assay in Myoblasts, signal relative to DMSO ([1]; 5 uM): 1.002
Burkin Assay in Myoblasts, signal relative to DMSO ([1]; 10 uM): 0.8626
Burkin Assay in Myoblasts, signal relative to DMSO ([1]; 20 uM): 0.826
Burkin Assay in Myoblasts, signal relative to DMSO ([1]; 40 uM): 0.8306
CMV-LACZ in Myotubes, signal relative to DMSO ([2]; 0.5 uM): 1.0621
CMV-LACZ in Myotubes, signal relative to DMSO ([2]; 1 uM): 1.0168
CMV-LACZ in Myotubes, signal relative to DMSO ([2]; 5 uM): 0.9839
CMV-LACZ in Myotubes, signal relative to DMSO ([2]; 10 uM): 0.9289
CMV-LACZ in Myotubes, signal relative to DMSO ([2]; 20 uM): 1.0756
CMV-LACZ in Myotubes, signal relative to DMSO ([2]; 40 uM): 1.0600
Burkin Assay in Myotubes, α7 integrin LacZ reporter signal relative to DMSO ([3]; 0.5 uM): 0.9247
Burkin Assay in Myotubes, α7 integrin LacZ reporter signal relative to DMSO ([3]; 1 uM): 0.9146
Burkin Assay in Myotubes, α7 integrin LacZ reporter signal relative to DMSO ([3]; 5 uM): 1.182
Burkin Assay in Myotubes, α7 integrin LacZ reporter signal relative to DMSO ([3]; 10 uM): 0.9335
Burkin Assay in Myotubes, α7 integrin LacZ reporter signal relative to DMSO ([3]; 20 uM): 0.8264
Burkin Assay in Myotubes, α7 integrin LacZ reporter signal relative to DMSO ([3]; 40 uM): 0.6103
CMV-LACZ in Myoblasts (β-galactosidase activity relative to DMSO) ([4]; 0.5 uM): 0.9542
CMV-LACZ in Myoblasts (β-galactosidase activity relative to DMSO) ([4]; 1 uM): 1.1138
CMV-LACZ in Myoblasts (β-galactosidase activity relative to DMSO) ([4]; 5 uM): 0.9228
CMV-LACZ in Myoblasts (β-galactosidase activity relative to DMSO) ([4]; 10 uM): 1.2178
CMV-LACZ in Myoblasts (β-galactosidase activity relative to DMSO) ([4]; 20 uM): 0.8730
CMV-LACZ in Myoblasts (β-galactosidase activity relative to DMSO) ([4]; 40 uM): 0.7619

N#C/C(=C1/C(=O)Nc2ccc(Br)cc21)c1ccccn1 [MLS001013431-01]
Burkin Assay in Myoblasts, value relative to DMSO ([1]; 0.5 uM): 1.202
Burkin Assay in Myoblasts, value relative to DMSO ([1]; 1 uM): 1
Burkin Assay in Myoblasts, value relative to DMSO ([1]; 5 uM): 0.7077
Burkin Assay in Myoblasts, value relative to DMSO ([1]; 10 uM): 0.5311
Burkin Assay in Myoblasts, value relative to DMSO ([1]; 20 uM): 0.4522
Burkin Assay in Myoblasts, value relative to DMSO ([1]; 40 uM): 0.3362
CMV-LACZ in Myotubes, value relative to DMSO ([2]; 0.5 uM): 0.8638
CMV-LACZ in Myotubes, value relative to DMSO ([2]; 1 uM): 1.1257
CMV-LACZ in Myotubes, value relative to DMSO ([2]; 5 uM): 0.9388
CMV-LACZ in Myotubes, value relative to DMSO ([2]; 10 uM): 0.9162
CMV-LACZ in Myotubes, value relative to DMSO ([2]; 20 uM): 1.0682
CMV-LACZ in Myotubes, value relative to DMSO ([2]; 40 uM): 1.2059
Burkin Assay in Myotubes, value relative to DMSO ([3]; 0.5 uM): 1.238
Burkin Assay in Myotubes, value relative to DMSO ([3]; 1 uM): 1.0097
Burkin Assay in Myotubes, value relative to DMSO ([3]; 5 uM): 0.8507
Burkin Assay in Myotubes, value relative to DMSO ([3]; 10 uM): 0.8506
Burkin Assay in Myotubes, value relative to DMSO ([3]; 20 uM): 0.7376
Burkin Assay in Myotubes, value relative to DMSO ([3]; 40 uM): 0.7069
CMV-LACZ in Myoblasts, value relative to DMSO ([4]; 0.5 uM): 0.9906
CMV-LACZ in Myoblasts, value relative to DMSO ([4]; 1 uM): 1.0640
CMV-LACZ in Myoblasts, value relative to DMSO ([4]; 5 uM): 0.8366
CMV-LACZ in Myoblasts, value relative to DMSO ([4]; 10 uM): 0.6673
CMV-LACZ in Myoblasts, value relative to DMSO ([4]; 20 uM): 0.5904
CMV-LACZ in Myoblasts, value relative to DMSO ([4]; 40 uM): 0.6670

COc1ccc(NC(=O)C2(N(C(=O)Cn3nnnc3N)c3ccc(OC)cc3)CCCCC2)cc1 [MLS001030268-01]
Burkin Assay in Myoblasts, signal relative to DMSO ([1]; 0.5 uM): 1.239
Burkin Assay in Myoblasts, signal relative to DMSO ([1]; 1 uM): 1.143
Burkin Assay in Myoblasts, signal relative to DMSO ([1]; 5 uM): 1.49
Burkin Assay in Myoblasts, signal relative to DMSO ([1]; 10 uM): 0.8716
Burkin Assay in Myoblasts, signal relative to DMSO ([1]; 20 uM): 0.726
Burkin Assay in Myoblasts, signal relative to DMSO ([1]; 40 uM): 0.6069
CMV-LACZ in Myotubes, signal relative to DMSO ([2]; 0.5 uM): 0.8830
CMV-LACZ in Myotubes, signal relative to DMSO ([2]; 1 uM): 1.1711
CMV-LACZ in Myotubes, signal relative to DMSO ([2]; 5 uM): 1.1318
CMV-LACZ in Myotubes, signal relative to DMSO ([2]; 10 uM): 1.1128
CMV-LACZ in Myotubes, signal relative to DMSO ([2]; 20 uM): 0.9365
CMV-LACZ in Myotubes, signal relative to DMSO ([2]; 40 uM): 0.9506
Burkin Assay in Myotubes, α7 integrin LacZ reporter signal relative to DMSO ([3]; 0.5 uM): 1.076
Burkin Assay in Myotubes, α7 integrin LacZ reporter signal relative to DMSO ([3]; 1 uM): 1.161
Burkin Assay in Myotubes, α7 integrin LacZ reporter signal relative to DMSO ([3]; 5 uM): 1.213
Burkin Assay in Myotubes, α7 integrin LacZ reporter signal relative to DMSO ([3]; 10 uM): 0.9249
Burkin Assay in Myotubes, α7 integrin LacZ reporter signal relative to DMSO ([3]; 20 uM): 0.6277
Burkin Assay in Myotubes, α7 integrin LacZ reporter signal relative to DMSO ([3]; 40 uM): 0.7606
CMV-LACZ in Myoblasts (β-galactosidase activity relative to DMSO) ([4]; 0.5 uM): 1.0809
CMV-LACZ in Myoblasts (β-galactosidase activity relative to DMSO) ([4]; 1 uM): 1.1550
CMV-LACZ in Myoblasts (β-galactosidase activity relative to DMSO) ([4]; 5 uM): 1.1347
CMV-LACZ in Myoblasts (β-galactosidase activity relative to DMSO) ([4]; 10 uM): 1.1787
CMV-LACZ in Myoblasts (β-galactosidase activity relative to DMSO) ([4]; 20 uM): 0.7467
CMV-LACZ in Myoblasts (β-galactosidase activity relative to DMSO) ([4]; 40 uM): 0.5556
